{
  "source": "patent US12171840B2",
  "about": "“Anti-mesothelin antibody and antibody drug conjugate thereof” (Remegen, Ltd., priority 2018, dated 2024)",
  "key": {"[1]": {"system": "Oval-Citar-3 human ovarian cancer bearing mouse model with high expression of MSLN", "test": "Anti-tumor experiment of RC88-Py-MAA-Val-Cit-PAB-MMAE, dose groups and controls, in Oval-Citar-3-MSLN tumor-bearing nude mice (Example 6)", "type": "in vivo", "protocol": "Oval-Citar-3-MSLN cells (2×10^6) in normal growth state were subcutaneously inoculated in nude mice (Changzhou Cavans Laboratory Animal Co., Ltd., certificate number: 201611240, license number: SCXK (Su) 2011-0003), and the animals were randomized after the tumor volume grew to approximately 100-400 mm^3. […] 3 times in total (PTX was administered twice a week, 6 times in total), and the negative control group was administrated with the equal amount of physiological saline at the same time."}, "Oval-Citar-3-MSLN cells": {"system": "Oval-Citar-3-MSLN cells", "test": "Cytotoxic activity (CCK-8) in Oval-Citar-3 cells with high expression of MSLN", "details": "for IC50: read-out: cytotoxicity IC50", "protocol": "Oval-Citar-3-MSLN cells in good growth state were added to a 96-well cell culture plates (5×10^4 cells/mL. 100 μL/well), and incubated overnight at 37° C. in a CO2 incubator. […] After dilution, they were added to 96 plates (100 μL/well), and a blank group (equal volume of medium without drug) and three control groups were set, and incubation was carried out in a CO2 constant temperature incubator at 37° C. for 72 hours. A medium (without FBS) that contained 10 μL of CCK-8 at a dose of 100 μL/well was added, incubated at 37° C. for 2 to 4 hours in a CO2 incubator, and the OD values at 450 nm were read with a microplate reader. The inhibition rate was calculated by the following formula: IR %=(ODblank−ODdrug)×100/ODblank."}, "[2]": {"details": "10 mg/kg twice a week, 6 times in total, after 21 days of administration"}, "[3]": {"details": "OVal-CitAR3-MSLN, 72 hours, CCK-8, N = 3"}},
  "note": "“And” between values parts separate entries of the source, which are not always exact repeats. Identical values can stand only once. Like-named read-outs stand apart in the source and are kept apart here. Starred links: 1 amine or outer side, 2 acyl side, 3 side chain; linkers in the order of their positions; H or OH if unused. Non-standard residues stand in square brackets, D forms with d. Residues, ends and D or L forms follow the SMILES beside them. *: point of attachment. Dolaproine = CO[C@@H]([C@@H]1CCCN1)[C@@H](C)C(=O)O; Hexanoyl(6-maleimido) = O=C1C=CC(=O)N1CCCCCC(=O)*; Dil = CC[C@H](C)[C@H](NC)[C@@H](CC(=O)O)OC; PABC = O=C(OCc1ccc(N[*:1])cc1)[*:2]; Doe = c1ccc(C[C@H](N*)c2nccs2)cc1; X1 = C[C@@H](N*)[C@@H](O)c1ccccc1; Cit = NC(=O)NCCC[C@H](N)C(=O)O; NMeV = CN[C@H](C(=O)O)C(C)C",
  "data": [
    {"smiles": "CC(=O)O[C@H]1C(=O)[C@@]2(C)[C@H]([C@H](OC(=O)c3ccccc3)[C@]3(O)C[C@H](OC(=O)[C@H](O)[C@@H](NC(=O)c4ccccc4)c4ccccc4)C(C)=C1C3(C)C)[C@]1(OC(C)=O)CO[C@@H]1C[C@@H]2O", "note": "[PTX, Paclitaxel]", "values": [
      {"measurement": "T/C", "setting": "[1]; [2]", "value": "< 40", "unit": "%"},
      {"measurement": "tumors completely eliminated (CR)", "setting": "[1]; [2]", "value": "tumors were completely eliminated (CR) in two tumor-bearing mice"},
      {"measurement": "tumor volume and RTV versus the control (saline) group", "setting": "[1]; 10 mg/kg twice a week, 6 times in total, after 21 days, P<0.05", "value": "statistically different"},
      {"measurement": "IC50", "setting": "Oval-Citar-3-MSLN cells; Homo sapiens, 72 h", "value": "0.00109 µg/mL and 1.27 nM"},
      {"measurement": "Inhibition rate, % (maximum inhibition rate)", "setting": "Oval-Citar-3-MSLN cells; [3]", "value": "92.8 ± 1.5", "unit": "%"}
    ]},
    {"smiles": "CC[C@H](C)[C@@H]([C@@H](CC(=O)N1CCC[C@H]1[C@H](OC)[C@@H](C)C(=O)N[C@H](C)[C@@H](O)c1ccccc1)OC)N(C)C(=O)[C@@H](NC(=O)[C@@H](NC)C(C)C)C(C)C", "note": "[MMAE, monomethyl auristatin E] (H-[NMeV]V[Dil][Dolaproine]-X1)", "values": [
      {"measurement": "difference from the control (saline) group", "setting": "[1]; 0.06 mg/kg, once a week, 3 times in total, P>0.05", "value": "no significant difference"},
      {"measurement": "Inhibition rate, % (maximum inhibition rate)", "setting": "Oval-Citar-3-MSLN cells; [3]", "value": "96.9 ± 0.7", "unit": "%"},
      {"measurement": "cytotoxicity IC50", "setting": "Oval-Citar-3-MSLN cells; [3]", "value": "0.3199 ± 0.0284", "unit": "ng/mL"},
      {"measurement": "IC50", "setting": "Oval-Citar-3-MSLN cells; [3]", "value": "0.446 ± 0.0395", "unit": "nM"}
    ]},
    {"smiles": "CC[C@H](C)[C@@H]([C@@H](CC(=O)N1CCC[C@H]1[C@H](OC)[C@@H](C)C(=O)N[C@H](C)[C@@H](O)c1ccccc1)OC)N(C)C(=O)[C@@H](NC(=O)[C@H](C(C)C)N(C)C(=O)OCc1ccc(NC(=O)[C@H](CCCNC(N)=O)NC(=O)[C@@H](NC(=O)CCCCCN2C(=O)C=CC2=O)C(C)C)cc1)C(C)C", "note": "[Mc-Val-Cit-PAB-MMAE] ({Hexanoyl(6-maleimido)}-V[Cit][PABC][NMeV]V[Dil][Dolaproine]-X1)", "values": [
      {"measurement": "Inhibition rate, % (maximum inhibition rate)", "setting": "Oval-Citar-3-MSLN cells; [3]", "value": "94.5 ± 0.8", "unit": "%"},
      {"measurement": "cytotoxicity IC50", "setting": "Oval-Citar-3-MSLN cells; [3]", "value": "~663.4", "unit": "ng/mL"}
    ]},
    {"smiles": "CC[C@H](C)[C@@H]([C@@H](CC(=O)N1CCC[C@H]1[C@H](OC)[C@@H](C)C(=O)N[C@@H](Cc1ccccc1)c1nccs1)OC)N(C)C(=O)[C@@H](NC(=O)[C@@H](NC)C(C)C)C(C)C", "note": "[MMAD, monomethyl auristatin D] (H-[NMeV]V[Dil][Dolaproine]-Doe)", "values": [
      {"measurement": "Inhibition rate, % (maximum inhibition rate)", "setting": "Oval-Citar-3-MSLN cells; [3]", "value": "98.1 ± 2.4", "unit": "%"},
      {"measurement": "cytotoxicity IC50", "setting": "Oval-Citar-3-MSLN cells; [3]", "value": "0.1169 ± 0.0074", "unit": "ng/mL"},
      {"measurement": "IC50", "setting": "Oval-Citar-3-MSLN cells; [3]", "value": "0.152 ± 0.01", "unit": "nM"}
    ]}
  ]
}
